Source: patent US20140297199A1, “DRUG SCREENING METHOD AND USES THEREOF” (COLD SPRING HARBOR LABORATORY, priority 2011, published 2014)
“Also recorded” adds a separate entry of the source.

System: c-fos-GFP expression in the mouse brain
Experiment: c-fos-GFP pharmacomaps of three antipsychotics at a moderate dosage (Example 9)
Settings: 5 mouse brains per drug; for brain regions activated (pharmacomap): haloperidol 0.25 mg/kg, risperidone 1.0 mg/kg, aripiprazole 1.0 mg/kg, vs saline; for c-fos-GFP activation, Anterior cingulate cortex (ACAd) / c-fos-GFP activation, Anterior cingulate cortex (ACAv) / c-fos-GFP activation, Basal, Central, Cortic. Amydgala (AMG) / c-fos-GFP activation, Bed nucleus of Stria Terminalis (BST) / c-fos-GFP activation, Caudate-putamen (CP, dorso-medial) / c-fos-GFP activation, Caudate-putamen (CP, ventro-medial) / c-fos-GFP activation, Caudoputamen (CP, dorsolateral) / c-fos-GFP activation, Caudoputamen (CP, ventrolateral) / c-fos-GFP activation, Central medial thalamic nucleus / c-fos-GFP activation, Claustrum (CLA) / c-fos-GFP activation, Dorsomedial hypoth. (HYP) / c-fos-GFP activation, Gostatory Cx (GU) / c-fos-GFP activation, Hippocampus: CA1, CA2, CA3 (HF) / c-fos-GFP activation, Hippocampus: DG / c-fos-GFP activation, Hypothalamus, ventromedial nuclei / c-fos-GFP activation, Infralimbic cortex (IL) / c-fos-GFP activation, Insular area, agranular / c-fos-GFP activation, Lateral Septum (LS) / c-fos-GFP activation, Lateral Spetal Nucl, dorsal part / c-fos-GFP activation, Midline Thalamus (Nucl Reuniens, RE) / c-fos-GFP activation, Midline Thalamus (PVT) / c-fos-GFP activation, Motor area, primary (MOp) / c-fos-GFP activation, Motor area, secondary (MOs) / c-fos-GFP activation, Nucleus Accumbens (ACB), core / c-fos-GFP activation, Nucleus Accumbens (ACB), shell / c-fos-GFP activation, Nucleus Accumbens (ACB), whole / c-fos-GFP activation, Olfactory tubercle (OT) / c-fos-GFP activation, Orbital cortex ventral (VO) / c-fos-GFP activation, Orbital cx (ORB), lateral / c-fos-GFP activation, Orbital cx (ORB), medial / c-fos-GFP activation, Piriform cx (PIR) / c-fos-GFP activation, Prelimbic cx (PL) / c-fos-GFP activation, RSPd, v, d and agl / c-fos-GFP activation, Red nucleus (RN) / c-fos-GFP activation, Somatosensory cx, primary / c-fos-GFP activation, Striatum, ventro-lateral / c-fos-GFP activation, Superior Colliculus (SC) / c-fos-GFP activation, Temporal cortex / c-fos-GFP activation, Ventromedial Thalamus (caudally) / c-fos-GFP activation, Zona Inserta: haloperidol 0.25, risperidone 1.0, aripiprazole 1.0 mg/kg, vs saline-injected control

With O=C1CCc2ccc(OCCCCN3CCN(c4cccc(Cl)c4Cl)CC3)cc2N1 [aripiprazole] the “brain regions activated (pharmacomap)” value was “activated a partially overlapping pattern, with more cortical areas, including prominent activation of auditory association and entorhinal areas; also recorded: Parts of the amygdala (AMG), hippocampal formation (HF), and midline thalamus (PVT and RE) also showed activation”, the “c-fos-GFP activation, Anterior cingulate cortex (ACAd)” value was “up” and the “c-fos-GFP activation, Anterior cingulate cortex (ACAv)” value was “up”. For the same molecule, the “c-fos-GFP activation, Basal, Central, Cortic. Amydgala (AMG)” value was “up”, the “c-fos-GFP activation, Bed nucleus of Stria Terminalis (BST)” value was 0 and the “c-fos-GFP activation, Caudate-putamen (CP, dorso-medial)” value was 0. The “c-fos-GFP activation, Caudate-putamen (CP, ventro-medial)” value was 0, the “c-fos-GFP activation, Caudoputamen (CP, dorsolateral)” value was “up” and the “c-fos-GFP activation, Caudoputamen (CP, ventrolateral)” value was 0. For the same molecule, the “c-fos-GFP activation, Central medial thalamic nucleus” value was “up”, the “c-fos-GFP activation, Claustrum (CLA)” value was “up” and the “c-fos-GFP activation, Dorsomedial hypoth. (HYP)” value was 0. For the same molecule, the “c-fos-GFP activation, Gostatory Cx (GU)” value was “up”, the “c-fos-GFP activation, Hippocampus: CA1, CA2, CA3 (HF)” value was “up” and the “c-fos-GFP activation, Hippocampus: DG” value was “down”. The “c-fos-GFP activation, Hypothalamus, ventromedial nuclei” value was 0, the “c-fos-GFP activation, Infralimbic cortex (IL)” value was “up” and the “c-fos-GFP activation, Insular area, agranular” value was “up”. For the same molecule, the “c-fos-GFP activation, Lateral Septum (LS)” value was 0, the “c-fos-GFP activation, Lateral Spetal Nucl, dorsal part” value was “up” and the “c-fos-GFP activation, Midline Thalamus (Nucl Reuniens, RE)” value was “up”. For the same molecule, the “c-fos-GFP activation, Midline Thalamus (PVT)” value was “up”, the “c-fos-GFP activation, Motor area, primary (MOp)” value was “up” and the “c-fos-GFP activation, Motor area, secondary (MOs)” value was “up”. For the same molecule, the “c-fos-GFP activation, Nucleus Accumbens (ACB), core” value was “up”, the “c-fos-GFP activation, Nucleus Accumbens (ACB), shell” value was “up” and the “c-fos-GFP activation, Nucleus Accumbens (ACB), whole” value was 0. For the same molecule, the “c-fos-GFP activation, Olfactory tubercle (OT)” value was “up”, the “c-fos-GFP activation, Orbital cortex ventral (VO)” value was 0 and the “c-fos-GFP activation, Orbital cx (ORB), lateral” value was “up”. The “c-fos-GFP activation, Orbital cx (ORB), medial” value was “up”, the “c-fos-GFP activation, Piriform cx (PIR)” value was 0 and the “c-fos-GFP activation, Prelimbic cx (PL)” value was “up”. The “c-fos-GFP activation, RSPd, v, d and agl” value was “up”, the “c-fos-GFP activation, Red nucleus (RN)” value was “down” and the “c-fos-GFP activation, Somatosensory cx, primary” value was “up”. For the same molecule, the “c-fos-GFP activation, Striatum, ventro-lateral” value was “up”, the “c-fos-GFP activation, Superior Colliculus (SC)” value was “up” and the “c-fos-GFP activation, Temporal cortex” value was “up”. For the same molecule, the “c-fos-GFP activation, Ventromedial Thalamus (caudally)” value was “up” and the “c-fos-GFP activation, Zona Inserta” value was “up”.

For Cc1nc2n(c(=O)c1CCN1CCC(c3noc4cc(F)ccc34)CC1)CCCC2 [risperidone], the “brain regions activated (pharmacomap)” value was “activated the prelimbic (PL), orbital (ORB), piriform (PIR) and gustatory (GU) cortices, the dorsal and ventral CP, ACB, claustrum (CLA), and superior colliculus (SC)”, the “c-fos-GFP activation, Anterior cingulate cortex (ACAd)” value was 0 and the “c-fos-GFP activation, Anterior cingulate cortex (ACAv)” value was 0. The “c-fos-GFP activation, Basal, Central, Cortic. Amydgala (AMG)” value was 0, the “c-fos-GFP activation, Bed nucleus of Stria Terminalis (BST)” value was 0 and the “c-fos-GFP activation, Caudate-putamen (CP, dorso-medial)” value was 0. The “c-fos-GFP activation, Caudate-putamen (CP, ventro-medial)” value was 0, the “c-fos-GFP activation, Caudoputamen (CP, dorsolateral)” value was “up” and the “c-fos-GFP activation, Caudoputamen (CP, ventrolateral)” value was “up”. The “c-fos-GFP activation, Central medial thalamic nucleus” value was 0, the “c-fos-GFP activation, Claustrum (CLA)” value was “up” and the “c-fos-GFP activation, Dorsomedial hypoth. (HYP)” value was 0. For the same molecule, the “c-fos-GFP activation, Gostatory Cx (GU)” value was “up”, the “c-fos-GFP activation, Hippocampus: CA1, CA2, CA3 (HF)” value was 0 and the “c-fos-GFP activation, Hippocampus: DG” value was 0. For the same molecule, the “c-fos-GFP activation, Hypothalamus, ventromedial nuclei” value was “down”, the “c-fos-GFP activation, Infralimbic cortex (IL)” value was 0 and the “c-fos-GFP activation, Insular area, agranular” value was 0. The “c-fos-GFP activation, Lateral Septum (LS)” value was 0, the “c-fos-GFP activation, Lateral Spetal Nucl, dorsal part” value was 0 and the “c-fos-GFP activation, Midline Thalamus (Nucl Reuniens, RE)” value was 0. The “c-fos-GFP activation, Midline Thalamus (PVT)” value was 0, the “c-fos-GFP activation, Motor area, primary (MOp)” value was 0 and the “c-fos-GFP activation, Motor area, secondary (MOs)” value was 0. For the same molecule, the “c-fos-GFP activation, Nucleus Accumbens (ACB), core” value was “up”, the “c-fos-GFP activation, Nucleus Accumbens (ACB), shell” value was 0 and the “c-fos-GFP activation, Nucleus Accumbens (ACB), whole” value was 0. The “c-fos-GFP activation, Olfactory tubercle (OT)” value was 0, the “c-fos-GFP activation, Orbital cortex ventral (VO)” value was “up” and the “c-fos-GFP activation, Orbital cx (ORB), lateral” value was “up”. For the same molecule, the “c-fos-GFP activation, Orbital cx (ORB), medial” value was “up”, the “c-fos-GFP activation, Piriform cx (PIR)” value was “up” and the “c-fos-GFP activation, Prelimbic cx (PL)” value was “down”. The “c-fos-GFP activation, RSPd, v, d and agl” value was 0, the “c-fos-GFP activation, Red nucleus (RN)” value was 0 and the “c-fos-GFP activation, Somatosensory cx, primary” value was 0. For the same molecule, the “c-fos-GFP activation, Striatum, ventro-lateral” value was 0, the “c-fos-GFP activation, Superior Colliculus (SC)” value was 0 and the “c-fos-GFP activation, Temporal cortex” value was 0. For the same molecule, the “c-fos-GFP activation, Ventromedial Thalamus (caudally)” value was 0 and the “c-fos-GFP activation, Zona Inserta” value was 0.
